Laboratory results taken from patent EP0195316A1, “Quinolonecarboxylic acid derivatives” (KYORIN PHARMACEUTICAL CO., LTD., priority 1985, dated 1986).
In brackets after ≈: the same amount, converted by molar mass. Read-outs that look alike come from different tables or passages of the source.

Legend:
[1] = test system: Klebsiella pneumoniae KY(GN)6445; test: MIC, in vitro antibacterial activity (standard strains); format: cell-based
C. perfringens KYA 13123 = test: microbe, parasite or virus in culture; format: cell-based; conditions: Clostridium perfringens, KYA13123
[2] = test system: B. thetaiotaomicron (0661); test: MIC, in vitro antibacterial activity (standard strains); format: cell-based; conditions: Bacteroides thetaiotaomicron; B. thetaiotaomicron (0661), 10^6 cells/ml, Gram -; read-out: MIC
MR-S. aureus = test: MIC, in vitro antibacterial activity (clinical isolates); format: cell-based; conditions: Staphylococcus aureus, No. of strains 46
[3] = test system: Citrobacter freundii IID 976; test: MIC, in vitro antibacterial activity (standard strains); format: cell-based; conditions: IID976
S. epidermidis IID 866 = test: as above; format: cell-based; conditions: Staphylococcus epidermidis, IID866; S. epidermidis IID 866, 10^6 cells/ml, Gram +
C. freundii = test: MIC, in vitro antibacterial activity (clinical isolates); format: cell-based; conditions: Citrobacter freundii, No. of strains 9
[4] = test system: Bacillus subtilis PCI 219; test: MIC, in vitro antibacterial activity (standard strains); format: cell-based; conditions: PCI219; Bacillus subtilis PCI 219, 10^6 cells/ml, Gram +
P. aeruginosa IFO 12689 [5] = format: cell-based
B. fragilis 25285 = test: MIC, in vitro antibacterial activity (standard strains); format: cell-based; conditions: Bacteroides fragilis; B. fragilis 25285, 10^6 cells/ml, Gram -
[6] = test system: Peptococcus magnus KY 017; test: as above; format: cell-based; conditions: Finegoldia magna, KY017; Peptococcus magnus KY 017, 10^6 cells/ml, Gram +
M. morganii = test: MIC, in vitro antibacterial activity (clinical isolates); format: cell-based; conditions: Morganella morganii, No. of strains 8
[7] = test system: Salmonella enteritidis IID 604; test: MIC, in vitro antibacterial activity (standard strains); format: cell-based; conditions: Salmonella enterica
P. maltophilia = test: MIC, in vitro antibacterial activity (clinical isolates); format: cell-based; conditions: Stenotrophomonas maltophilia, No. of strains 9
P. aeruginosa IFO 12689 [8] = test: MIC, in vitro antibacterial activity (standard strains); format: cell-based; conditions: Pseudomonas aeruginosa, IFO12689; P. aeruginosa IFO 12689, 10^6 cells/ml, Gram -
S. marcescens GN 7577 = format: cell-based
H. influenzae = test: MIC, in vitro antibacterial activity (clinical isolates); format: cell-based; conditions: Haemophilus influenzae, No. of strains 26
N. meningitidis = test: as above; format: cell-based; conditions: Neisseria meningitidis, No. of strains 3
K. pneumoniae 1-220S = test: MIC, in vitro antibacterial activity (standard strains); format: cell-based; conditions: Klebsiella pneumoniae, 1220S; K. pneumoniae 1-220S, 10^6 cells/ml, Gram -; read-out: MIC
P. aeruginosa = test: MIC, in vitro antibacterial activity (clinical isolates); format: cell-based; conditions: Pseudomonas aeruginosa; clinical isolates P. aeruginosa, No. of strains 27; read-out: MIC
B. fragilis 0558 = test: MIC, in vitro antibacterial activity (standard strains); format: cell-based; conditions: Bacteroides fragilis; B. fragilis 0558, 10^6 cells/ml, Gram -
Campylobacter jejuni = test: MIC, in vitro antibacterial activity (clinical isolates); format: cell-based; conditions: No. of strains 20
Bacteroides fragilis 2 = test: Experimental local infection with anaerobic bacteria in granuloma pouches in rats; format: in vivo; conditions: 25 mg/kg, p.o., pouch exudate, Mean ± S.D. (n=3)
Experimental: Under ether anesthesia, male Wistar rats (7 weeks old) were injected subcutaneously on the back with 20 ml of germ-free air (sterilized by membrane filtration, 0.45 µm pore size) by means of a syringe. Continuously, an inflammatory reaction was induced by injecting one ml of sterile croton oil solution (1 % in olive oil) into the formed air pouch. After 2 days, the air was removed. On the eighth day, 0.5 ml of Bacteroides fragilis 2 culture (10^6 CFU/ml) were injected into bore granuloma pouches. Each compound was administered orally or subcutaneously at 2 hours after infection. […] During experiment, intake of food and water was free. It was known that the activity of the existing quinolonecarboxylic acid compounds against obligate anaerobic bacteria was very weak. […] This property is also one of excellent characters of the present comound.

S. epidermidis = test: MIC, in vitro antibacterial activity (clinical isolates); format: cell-based; conditions: Staphylococcus epidermidis, No. of strains 10
S. aureus Smith = format: cell-based; conditions: Conc. of Drugs 2MIC
[9] = test system: Staphylococcus aureus 209 P; test: MIC, in vitro antibacterial activity (standard strains); format: cell-based; conditions: 10^6 cells/ml, Gram +
Bacteroides sp. = test: MIC, in vitro antibacterial activity (clinical isolates); format: cell-based; conditions: No. of strains 17
[10] = test system: Fusobacterium necrophorum S-45; test: MIC, in vitro antibacterial activity (standard strains); format: cell-based; conditions: S45; Fusobacterium necrophorum S-45, 10^6 cells/ml, Gram -
[11] = test system: Peptostreptococcus anaerobius KYA 27337; test: as above; format: cell-based; conditions: KYA27337; Peptostreptococcus anaerobius KYA 27337, 10^6 cells/ml, Gram +
S. aureus 209 P = format: cell-based
E. cloacae = test: MIC, in vitro antibacterial activity (clinical isolates); format: cell-based; conditions: Enterobacter cloacae
[12] = test system: Alcaligenes faecalis 0104002; test: MIC, in vitro antibacterial activity (standard strains); format: cell-based; conditions: Alcaligenes faecalis 0104002, 10^6 cells/ml, Gram -; read-out: MIC
Shigella sonnei IID 969 = test: as above; format: cell-based; conditions: IID969; Shigella sonnei IID 969, 10^6 cells/ml, Gram -
Experimental: Minimal inhibitory concentrations (MICs) were determined in accordance with the method recommended by Japan Society of Chemotherapy.

S. marcescens = test: MIC, in vitro antibacterial activity (clinical isolates); format: cell-based; conditions: Serratia marcescens, No. of strains 20
[13] = P. aeruginosa IFO 12689, Conc. of Drugs 2MIC
[14] = P. aeruginosa IFO 12689, Conc. of Drugs 4MIC
[15] = S. marcescens GN 7577, Conc. of Drugs 4MIC
[16] = S. marcescens GN 7577, Conc. of Drugs 8MIC

NC1CCN(c2c(F)cc3c(=O)c(C(=O)O)cn(C4CC4)c3c2Cl)C1 (stereo not drawn) [Example 25, 7-(3-Amino-l-pyrrolidinyl)-8-chloro-l-cyclopropyl-6-fluoro-1,4-dihydro-4-oxo-3-quinolinecarboxylic acid]
MIC ([1]; Klebsiella pneumoniae): 0.0125 µg/mL (≈ 0.0342 µM)
MIC (C. perfringens KYA 13123): 0.1 µg/mL (≈ 0.273 µM)
MIC [2]: 0.2 µg/mL (≈ 0.547 µM)
MIC (MR-S. aureus): 0.1 µg/mL (≈ 0.273 µM)
MIC ([3]; Citrobacter freundii): 0.0125 µg/mL (≈ 0.0342 µM)
MIC (S. epidermidis IID 866): 0.05 µg/mL
MIC (C. freundii): 0.1 µg/mL (≈ 0.273 µM)
MIC [4]: 0.025 µg/mL
Frequency of spontaneous resistant mutants (P. aeruginosa IFO 12689 [5]; [13]): 4.5 × 10^-8
Frequency of spontaneous resistant mutants (P. aeruginosa IFO 12689 [5]; [14]): <6.3 × 10^-10
MIC (B. fragilis 25285): 0.1 µg/mL (≈ 0.273 µM)
MIC [6]: 0.05 µg/mL
MIC (M. morganii): 0.025 µg/mL (≈ 0.0683 µM)
MIC [7]: 0.0125 µg/mL (≈ 0.0342 µM)
MIC (P. maltophilia): 0.78 µg/mL (≈ 2.13 µM)
MIC (P. aeruginosa IFO 12689 [8]): 0.2 µg/mL (≈ 0.547 µM)
Frequency of spontaneous resistant mutants (S. marcescens GN 7577; S. marcescens GN 7577, Conc. of Drugs 2MIC): 2.3 × 10^-7
Frequency of spontaneous resistant mutants (S. marcescens GN 7577; [15]): <5.3 × 10^-10
Frequency of spontaneous resistant mutants (S. marcescens GN 7577; [16]): <5.3 × 10^-10
MIC (H. influenzae): 0.013 µg/mL (≈ 0.0355 µM)
MIC (N. meningitidis): 0.006 µg/mL (≈ 0.0164 µM)
MIC (K. pneumoniae 1-220S): 0.05 µg/mL (≈ 0.137 µM)
MIC (P. aeruginosa): 0.2 µg/mL (≈ 0.547 µM)
MIC (B. fragilis 0558): 0.1 µg/mL (≈ 0.273 µM)
MIC (Campylobacter jejuni): 0.05 µg/mL (≈ 0.137 µM)
Viable cells count (log) / ml (Bacteroides fragilis 2; 6 hr): 4.6 ± 0.31 (log) / ml
Viable cells count (log) / ml (Bacteroides fragilis 2; 24 hr): 4.5 ± 0.15 (log) / ml
MIC (S. epidermidis): 0.05 µg/mL (≈ 0.137 µM)
Frequency of spontaneous resistant mutants (S. aureus Smith): <2.9 × 10^-9
MIC [9]: 0.05 µg/mL
MIC (Bacteroides sp.): 0.1 µg/mL (≈ 0.273 µM)
MIC [10]: 0.2 µg/mL (≈ 0.547 µM)
MIC [11]: 0.2 µg/mL
Frequency of spontaneous resistant mutants (S. aureus 209 P; Conc. of Drugs 2MIC): 2.9 × 10^-8
Frequency of spontaneous resistant mutants (S. aureus 209 P; Conc. of Drugs 4MIC): <2.9 × 10^-9
MIC (E. cloacae): 0.013 µg/mL (≈ 0.0355 µM)
MIC [12]: 0.05 µg/mL (≈ 0.137 µM)
MIC (Shigella sonnei IID 969): 0.0125 µg/mL (≈ 0.0342 µM)
MIC (S. marcescens): 0.05 µg/mL (≈ 0.137 µM)

CC1CN(c2c(F)cc3c(=O)c(C(=O)O)cn(C4CC4)c3c2Cl)CCN1 (stereo not shown) [Ref.2, 8-Chloro-1-cyclopropyl-6-fluoro-1,4-dihydro-7-(3-methyl-1-piperazinyl)-4-oxo-3-quinolinecarboxylic acid]
MIC ([1]; Klebsiella pneumoniae KY(GN)6445, 10^6 cells/ml, Gram -, read-out: MIC): 0.025 µg/mL (≈ 0.0658 µM)
MIC (C. perfringens KYA 13123): 0.39 µg/mL (≈ 1.03 µM)
MIC [2]: 0.78 µg/mL (≈ 2.05 µM)
MIC (MR-S. aureus): 0.39 µg/mL (≈ 1.03 µM)
MIC ([3]; Citrobacter freundii IID 976, 10^6 cells/ml, Gram -, read-out: MIC): 0.05 µg/mL (≈ 0.132 µM)
MIC (S. epidermidis IID 866): 0.1 µg/mL
MIC (C. freundii): 0.2 µg/mL (≈ 0.527 µM)
MIC [4]: 0.025 µg/mL
Frequency of spontaneous resistant mutants (P. aeruginosa IFO 12689 [5]; [13]): 5.5 × 10^-7
Frequency of spontaneous resistant mutants (P. aeruginosa IFO 12689 [5]; [14]): <6.3 × 10^-10
MIC (B. fragilis 25285): 0.39 µg/mL (≈ 1.03 µM)
MIC [6]: 0.2 µg/mL
MIC (M. morganii): 0.1 µg/mL (≈ 0.263 µM)
MIC ([7]; Salmonella enteritidis IID 604, 10^6 cells/ml, Gram -, read-out: MIC): 0.05 µg/mL (≈ 0.132 µM)
MIC (P. maltophilia): 1.56 µg/mL (≈ 4.11 µM)
MIC (P. aeruginosa IFO 12689 [8]): 1.56 µg/mL (≈ 4.11 µM)
Frequency of spontaneous resistant mutants (S. marcescens GN 7577; [15]): 9.9 × 10^-7
Frequency of spontaneous resistant mutants (S. marcescens GN 7577; [16]): 2.1 × 10^-9
MIC (H. influenzae): 0.025 µg/mL (≈ 0.0658 µM)
MIC (N. meningitidis): 0.006 µg/mL (≈ 0.0158 µM)
MIC (K. pneumoniae 1-220S): 0.05 µg/mL (≈ 0.132 µM)
MIC (P. aeruginosa): 1.56 µg/mL (≈ 4.11 µM)
MIC (B. fragilis 0558): 0.39 µg/mL (≈ 1.03 µM)
MIC (Campylobacter jejuni): 0.2 µg/mL (≈ 0.527 µM)
Viable cells count (log) / ml (Bacteroides fragilis 2; 6 hr): 5.1 ± 0.21 (log) / ml
Viable cells count (log) / ml (Bacteroides fragilis 2; 24 hr): 4.5 ± 0.55 (log) / ml
MIC (S. epidermidis): 0.1 µg/mL (≈ 0.263 µM)
Frequency of spontaneous resistant mutants (S. aureus Smith): 3.6 × 10^-7
MIC [9]: 0.1 µg/mL
MIC (Bacteroides sp.): 0.39 µg/mL (≈ 1.03 µM)
MIC [10]: 0.39 µg/mL (≈ 1.03 µM)
MIC [11]: 0.78 µg/mL
Frequency of spontaneous resistant mutants (S. aureus 209 P; Conc. of Drugs 4MIC): 5.1 × 10^-8
MIC (E. cloacae): 0.05 µg/mL (≈ 0.132 µM)
MIC [12]: 0.2 µg/mL (≈ 0.527 µM)
MIC (Shigella sonnei IID 969): 0.0125 µg/mL (≈ 0.0329 µM)
MIC (S. marcescens): 0.05 µg/mL (≈ 0.132 µM)
